Experimental data as given in patent US20220008391A1, “NOVEL COMPOUNDS FOR CONTROLLING ARTHROPODS” (Bayer Animal Health GmbH, priority 2018, published 2022).
≈ marks a conversion by molar mass, not a printed value.

assay: Measurement of solubility in buffer at pH 6.5; type: physicochemical; details: aqueous buffer, kinetic from dmso stock; PBS buffer pH 6.5, shaken 24h at rt, LC-MSMS; read-out: Solubility of example compounds at pH 6.5
Procedure: Measurement of Solubility in Buffer at pH 6.5 2-4 mg of the test compound are dissolved in DMSO to reach a concentration of 50 g/L (solution A). To 10 μl of this solution 960 μl PBS buffer pH 6.5 are added (final concentration: 515 μg/1); the mixture is shaken for 24h at rt in a 96 well plate. An aliquot is centrifuged at 42000 rpm für 30 min. The supernatant is diluted with acetonitrile/water (8:2) 1:10 and 1:1000 resp. This diluted samples are analyzed by LC-MSMS. Calibration: 10 μl of solution A are diluted with 823 μl DMSO (final concentration: 600 μg/ml), which is further diluted with acetonitrile/water 8:2 by a factor of 100 (provides solution B). The calibration curve is obtained from solution B by further diluting with acetonitrile/water 8:2 with target concentrations of 1.2-12-60-600 ng/ml and injecting these four solutions for MS measurement. PBS-Puffer: 6.18 g sodium chloride and 3.96 g sodium dihydrogen phosphate are dissolved in 1 L aqua dist., the pH is adjusted to 6.5 with 1N sodium hydroxide. The following conditions were used for quantification: Autosampler without auto inject ahead setting, column: Waters OASIS HLB, 2,1×20 mm, 25μ, column temperature: 30° C., flow rate: 2.5 mL/min, injected volume: 2 μl, Splitter (before MS) 1:20.

Row | SMILES | solubility at 24 h
1 | CC(C)(COCCOC(=O)OCN(C(=O)c1cc(-c2cnn(-c3c(Cl)cc(C(F)(C(F)(F)F)C(F)(F)F)cc3OC(F)(F)F)c2)ccc1Cl)C1(C#N)CC1)C(=O)O [Example 8, 1-(2-chloro-5-{1-[2-chloro-4-(1,1,1,2,3,3,3-heptafluoropropan-2-yl)-6-(trifluoromethoxy)phenyl]-1H-pyrazol-4-yl}phenyl)-2-(1-cyanocyclopropyl)-11,11-dimethyl-1,5-dioxo-4,6,9-trioxa-2-azadodecan-12-oic Acid] | 1 µg/mL (≈ 1.15 µM)
2 | N#CC1(N(COC(=O)O[C@H]2CCC[C@@H]2OC(=O)/C=C/C(=O)O)C(=O)c2cc(-c3cnn(-c4c(Cl)cc(C(F)(C(F)(F)F)C(F)(F)F)cc4OC(F)(F)F)c3)ccc2Cl)CC1 [Example 10, (2E)-4-({(1S,2S)-2-[({[(2-chloro-5-{1-[2-chloro-4-(1,1,1,2,3,3,3-heptafluoropropan-2-yl)-6-(trifluoromethoxy)phenyl]-1H-pyrazol-4-yl}benzoyl)(1-cyanocyclopropyl)amino]methoxy}carbonyl)oxy]cyclopentyl}oxy)-4-oxobut-2-enoic Acid] | 3 µg/mL (≈ 3.31 µM)
3 | N#CC1(N(COC(=O)O[C@H]2CCC[C@@H]2OC(=O)CCC(=O)O)C(=O)c2cc(-c3cnn(-c4c(Cl)cc(C(F)(C(F)(F)F)C(F)(F)F)cc4OC(F)(F)F)c3)ccc2Cl)CC1 [Example 11, 4-({(1S,2S)-2-[({[(2-chloro-5-{1-[2-chloro-4-(1,1,1,2,3,3,3-heptafluoropropan-2-yl)-6-(trifluoromethoxy)phenyl]-1H-pyrazol-4-yl}benzoyl)(1-cyanocyclopropyl)amino]methoxy}carbonyl)oxy]cyclopentyl}oxy)-4-oxobutanoic Acid] | 2 µg/mL (≈ 2.2 µM)
4 | N#CC1(N(COC(=O)O[C@H]2CC[C@@H](OC(=O)CCC(=O)O)CC2)C(=O)c2cc(-c3cnn(-c4c(Cl)cc(C(F)(C(F)(F)F)C(F)(F)F)cc4OC(F)(F)F)c3)ccc2Cl)CC1 [Example 15, 4-({cis-4-[({[(2-chloro-5-{1-[2-chloro-4-(1,1,1,2,3,3,3-heptafluoropropan-2-yl)-6-(trifluoromethoxy)phenyl]-1H-pyrazol-4-yl}benzoyl)(1-cyanocyclopropyl)amino]methoxy}carbonyl)oxy]cyclohexyl}oxy)-4-oxobutanoic Acid] | 1 µg/mL (≈ 1.09 µM)
5 | N#CC1(N(COC(=O)O[C@H]2CC[C@H](OC(=O)/C=C/C(=O)O)CC2)C(=O)c2cc(-c3cnn(-c4c(Cl)cc(C(F)(C(F)(F)F)C(F)(F)F)cc4OC(F)(F)F)c3)ccc2Cl)CC1 [Example 16, (2E)-4-({trans-4-[({[(2-chloro-5-{1-[2-chloro-4-(1,1,1,2,3,3,3-heptafluoropropan-2-yl)-6-(trifluoromethoxy)phenyl]-1H-pyrazol-4-yl}benzoyl)(1-cyanocyclopropyl)amino]methoxy}carbonyl)oxy]cyclohexyl}oxy)-4-oxobut-2-enoic Acid] | 2 µg/mL (≈ 2.18 µM)
6 | CC(C)(CC(=O)OCCOC(=O)OCN(C(=O)c1cc(-c2cnn(-c3c(Cl)cc(C(F)(C(F)(F)F)C(F)(F)F)cc3OC(F)(F)F)c2)ccc1Cl)C1(C#N)CC1)C(=O)O [Example 9, 1-(2-Chloro-5-{1-[2-chloro-4-(1,1,1,2,3,3,3-heptafluoropropan-2-yl)-6-(trifluoromethoxy)phenyl]-1H-pyrazol-4-yl}phenyl)-2-(1-cyanocyclopropyl)-12,12-dimethyl-1,5,10-trioxo-4,6,9-trioxa-2-azatridecan-13-oic Acid] | 5 µg/mL (≈ 5.58 µM)
7 | N#CC1(N(COC(=O)O[C@H]2CC[C@@H](C(=O)O)CC2)C(=O)c2cc(-c3cnn(-c4c(Cl)cc(C(F)(C(F)(F)F)C(F)(F)F)cc4OC(F)(F)F)c3)ccc2Cl)CC1 [Example 17, Cis-4-[({[(2-Chloro-5-{1-[2-chloro-4-(1,1,1,2,3,3,3-heptafluoropropan-2-yl)-6-(trifluoromethoxy)phenyl]-1H-pyrazol-4-yl}benzoyl)(1-cyanocyclopropyl)amino]methoxy}carbonyl)oxy]cyclohexane-1-carboxylic Acid] | 2 µg/mL (≈ 2.35 µM)
8 | N#CC1(N(COC(=O)OCCOC(=O)CCC(=O)O)C(=O)c2cc(-c3cnn(-c4c(Cl)cc(C(F)(C(F)(F)F)C(F)(F)F)cc4OC(F)(F)F)c3)ccc2Cl)CC1 [Example 3, 1-(2-Chloro-5-{1-[2-chloro-4-(1,1,1,2,3,3,3-heptafluoropropan-2-yl)-6-(trifluoromethoxy)phenyl]-1H-pyrazol-4-yl}phenyl)-2-(1-cyanocyclopropyl)-1,5,10-trioxo-4,6,9-trioxa-2-azatridecan-13-oic Acid] | 6 µg/mL (≈ 6.92 µM)
9 | N#CC1(N(COC(=O)O[C@H]2CCC[C@H]2OC(=O)/C=C/C(=O)O)C(=O)c2cc(-c3cnn(-c4c(Cl)cc(C(F)(C(F)(F)F)C(F)(F)F)cc4OC(F)(F)F)c3)ccc2Cl)CC1 (relative stereo) [Example 6, (2E)-4-({(rel 1R,2S)-2-[({[(2-chloro-5-{1-[2-chloro-4-(1,1,1,2,3,3,3-heptafluoropropan-2-yl)-6-(trifluoromethoxy)phenyl]-1H-pyrazol-4-yl}benzoyl)(1-cyanocyclopropyl)amino]methoxy}carbonyl)oxy]cyclopentyl}oxy)-4-oxobut-2-enoic Acid] | 4 µg/mL (≈ 4.42 µM)
10 | N#CC1(N(COC(=O)OCCOC(=O)C2(C(=O)O)CC2)C(=O)c2cc(-c3cnn(-c4c(Cl)cc(C(F)(C(F)(F)F)C(F)(F)F)cc4OC(F)(F)F)c3)ccc2Cl)CC1 [Example 13, 1-[10-(2-Chloro-5-{1-[2-chloro-4-(1,1,1,2,3,3,3-heptafluoropropan-2-yl)-6-(trifluoromethoxy)phenyl]-1H-pyrazol-4-yl}phenyl)-9-(1-cyanocyclopropyl)-6,10-dioxo 2,5,7-trioxa-9-azadecanan-1-oyl]cyclopropane-1-carboxylic Acid] | 7 µg/mL (≈ 7.96 µM)

Now from value to compound:

Row | solubility at 24 h | SMILES
11 | 96 µg/mL (≈ 122 µM) | Cn1nc(C(F)(F)C(F)(F)F)c(C(F)(F)F)c1-n1cc(-c2ccc(Cl)c(C(=O)N(COC(=O)OCCCOC(=O)CCC(=O)O)C3(C#N)CC3)c2)cn1 [Example 26, 1-{2-Chloro-5-[2′-methyl-5′-(pentafluoroethyl)-4′-(trifluoromethyl)-2′H-[1,3′-bipyrazol]-4-yl]phenyl}-2-(1-cyanocyclopropyl)-1,5,11-trioxo-4,6,10-trioxa-2-azatetradecan-14-oic Acid]
12 | 398 µg/mL (≈ 581 µM) | Cn1nc(C(F)(F)C(F)(F)F)c(C(F)(F)F)c1-n1cc(-c2ccc(Cl)c(C(=O)N(COC(=O)OCC(=O)O)C3(C#N)CC3)c2)cn1 [Example 30, [({[{2-Chloro-5-[2′-methyl-5′-(pentafluoroethyl)-4′-(trifluoromethyl)-2′H-[1,3′-bipyrazol]-4-yl]benzoyl}(1-cyanocyclopropyl)amino]methoxy}carbonyl)oxy]acetic Acid]
13 | 98 µg/mL (≈ 125 µM) | Cn1nc(C(F)(F)C(F)(F)F)c(C(F)(F)F)c1-n1cc(-c2ccc(Cl)c(C(=O)N(COC(=O)OCCCOC(=O)/C=C/C(=O)O)C3(C#N)CC3)c2)cn1 [Example 25, (12E)-1-{2-Chloro-5-[2′-methyl-5′-(pentafluoroethyl)-4′-(trifluoromethyl)-2′H-[1,3′-bipyrazol]-4-yl]phenyl}-2-(1-cyanocyclopropyl)-1,5,11-trioxo-4,6,10-trioxa-2-azatetradec-12-en-14-oic Acid]
14 | 57 µg/mL (≈ 75.7 µM) | Cn1nc(C(F)(F)C(F)(F)F)c(C(F)(F)F)c1-n1cc(-c2ccc(Cl)c(C(=O)N(COC(=O)O[C@H]3CC[C@H](C(=O)O)CC3)C3(C#N)CC3)c2)cn1 [Example 24, Trans-4-[({[{2-Chloro-5-[2′-methyl-5′-(pentafluoroethyl)-4′-(trifluoromethyl)-2′H-[1,3′-bipyrazol]-4-yl]benzoyl}(1-cyanocyclopropyl)amino]methoxy}carbonyl)oxy]cyclohexane-1-carboxylic Acid]
15 | 147 µg/mL (≈ 188 µM) | Cn1nc(C(F)(F)C(F)(F)F)c(C(F)(F)F)c1-n1cc(-c2ccc(Cl)c(C(=O)N(COC(=O)OCCOC(=O)C3(C(=O)O)CC3)C3(C#N)CC3)c2)cn1 [Example 27, 1-[10-{2-Chloro-5-[2′-methyl-5′-(pentafluoroethyl)-4′-(trifluoromethyl)-2′H-[1,3′-bipyrazol]-4-yl]phenyl}-9-(1-cyanocyclopropyl)-6,10-dioxo-2,5,7-trioxa-9-azadecanan-1-oyl]cyclopropane-1-carboxylic Acid]
16 | 35 µg/mL (≈ 43 µM) | Cn1nc(C(F)(F)C(F)(F)F)c(C(F)(F)F)c1-n1cc(-c2ccc(Cl)c(C(=O)N(COC(=O)OCC(C)(C)COC(=O)CCC(=O)O)C3(C#N)CC3)c2)cn1 [Example 29, 1-{2-Chloro-5-[2′-methyl-5′-(pentafluoroethyl)-4′-(trifluoromethyl)-2′H-[1,3′-bipyrazol]-4-yl]phenyl}-2-(1-cyanocyclopropyl)-8,8-dimethyl-1,5,11-trioxo-4,6,10-trioxa-2-azatetradecan-14-oic Acid]
17 | 136 µg/mL (≈ 187 µM) | Cn1nc(C(F)(F)C(F)(F)F)c(C(F)(F)F)c1-n1cc(-c2ccc(Cl)c(C(=O)N(COC(=O)OCC(C)(C)C(=O)O)C3(C#N)CC3)c2)cn1 [Example 21, 3-[({[{2-Chloro-5-[2′-methyl-5′-(pentafluoroethyl)-4′-(trifluoromethyl)-2′H-[1,3′-bipyrazol]-4-yl]benzoyl}(1-cyanocyclopropyl)amino]methoxy}carbonyl)oxy]-2,2-dimethylpropanoic Acid]
